Experimental data as given in patent publication US8604068B2, “Insecticidal compositions of 2-cyanobenzene sulfonamide compounds and isomeric forms thereof having improved effect” (Bayer CropScience AG, priority 2007, dated 2013).

Experiments:
Assay type in all cases: in vivo
[1] = test system: green peach aphid (Myzus persicae); test: Myzus persicae test (MYZUPE), ammonium salts in combination with penetration enhancers (Example C); settings: for Kill rate/% after 6 days, +AS (1000 ppm) / Kill rate/% after 6 days, +RME (1000 ppm) / Kill rate/% after 6 days, +RME + AS (each 1000 ppm) / Kill rate/% after 6 days, a.i.: Table C1; for Kill rate/% after 6 days, a.i. / Kill rate/% after 7 days, a.i.: no additive; for Kill rate/% after 7 days, +AS (1000 ppm) / Kill rate/% after 7 days, +RME (1000 ppm) / Kill rate/% after 7 days, +RME + AS (each 1000 ppm) / Kill rate/% after 7 days, a.i.: Table C2, emulsifier 1 part; for Kill rate/% after 7 days, +AS (1000 ppm): active substance 60 g/ha + ammonium sulfate 1000 ppm; for Kill rate/% after 7 days, +RME (1000 ppm): active substance 60 g/ha + rape oil methyl ester 1000 ppm; for Kill rate/% after 7 days, +RME + AS (each 1000 ppm): active substance 60 g/ha + rape oil methyl ester and ammonium sulfate; for Kill rate/% after 7 days, a.i.: active substance 60 g/ha
Procedure: (§1) Myzus persicae—Test (MYZUPE)
(§2) For the preparation of a suitable active substance preparation, 1 part by weight of active substance is mixed with the stated quantities of solvent and emulsifier and the concentrate is diluted to the desired concentration with emulsifier-containing water. When addition of ammonium salts, penetration enhancers or ammonium salts and penetration enhancers is necessary, these are in each case pipetted into the finished preparation solution in a concentration of 1000 ppm after dilution.
Paprika plants (Capsicum annuum) which are severely infested with the green peach aphid (Myzus persicae) are treated by spraying with the active substance preparation in the desired concentration.
(§3) After the desired time, the kill rate in % is determined. Here 100% means that all the animals were killed; 0% means that no animals were killed.

[2] = test system: cotton aphid (Aphis gossypii); test: Aphis gossypii test (APHIGO), ammonium salts in combination with penetration enhancers (Example D); settings: for Kill rate/% after 6 days, +AS (1000 ppm) / Kill rate/% after 6 days, +RME (1000 ppm) / Kill rate/% after 6 days, +RME + AS (each 1000 ppm) / Kill rate/% after 6 days, a.i.: Table D1; for Kill rate/% after 6 days, a.i. / Kill rate/% after 7 days, a.i.: no additive; for Kill rate/% after 7 days, +AS (1000 ppm) / Kill rate/% after 7 days, +RME (1000 ppm) / Kill rate/% after 7 days, +RME + AS (each 1000 ppm) / Kill rate/% after 7 days, a.i.: Table D2, emulsifier 1 part; for Kill rate/% after 7 days, +AS (1000 ppm): active substance 2.4 g/ha + ammonium sulfate 1000 ppm; for Kill rate/% after 7 days, +RME (1000 ppm): active substance 2.4 g/ha + rape oil methyl ester 1000 ppm; for Kill rate/% after 7 days, +RME + AS (each 1000 ppm): active substance 2.4 g/ha + rape oil methyl ester and ammonium sulfate; for Kill rate/% after 7 days, a.i.: active substance 2.4 g/ha
Procedure: (§4) Aphis gossypii-Test (APHIGO)
as §2
(§5) Cotton leaves (Gossypium hirsutum) which are severely infested with the cotton aphid (Aphis gossypii) are sprayed with an active substance preparation with the desired concentration.
(§6) After the desired time, the kill rate in % is determined. Here 100% means that all the aphids were killed; 0% means that no aphids were killed.

[3] = test system: common spider mite (Tetranychus urticae); test: Tetranychus test (OP-resistant), ammonium salts in combination with penetration enhancers (Example F); settings: for Kill rate/% after 6 days, a.i.: no additive
Procedure: (§7) Tetranychus-Test (OP-Resistant)
as §2
(§8) Bean plants (Phaseolus vulgaris) which are severely infested by all stages of the common spider mite (Tetranychus urticae) are treated by spraying with the active substance preparation in the desired concentration.
(§9) After the desired time, the kill rate in % is determined. here 100% means that all the spider mites were killed; 0% means that no spider mites were killed.

[4] = test system: cotton aphid (Aphis gossypii); test: Aphis gossypii test (APHIGO), activity increase due to ammonium salts (Example B); settings: sprayed cotton leaves; for Kill rate/% after 6 days, a.i.: no additive
Procedure: as §4
as §2, with “ammonium” for “ammonium salts, penetration enhancers or ammonium”, “salts” for “salts and penetration enhancers”
as §5, §6

[5] = test system: common spider mite (Tetranychus urticae); test: Tetranychus test (OP-resistant), activity increase due to ammonium salts (Example E); settings: sprayed bean plants; for Kill rate/% after 6 days, +AS (1000 ppm): active substance 20 ppm + ammonium sulfate 1000 ppm; for Kill rate/% after 6 days, a.i.: active substance 20 ppm, no additive
Procedure: as §7
as §2, with “ammonium” for “ammonium salts, penetration enhancers or ammonium”, “salts” for “salts and penetration enhancers”
as §8, §9

[6] = test system: green peach aphid (Myzus persicae); test: Myzus persicae test (MYZUPE), activity increase due to ammonium salts (Example A); settings: sprayed paprika plants; for Kill rate/% after 6 days, a.i.: no additive
Procedure: as §1
as §2, with “ammonium” for “ammonium salts, penetration enhancers or ammonium”, “salts” for “salts and penetration enhancers”
Paprika plants (Capsicum annuum) which are severely infested by the green peach aphid (Myzus persicae) are treated by spraying with the active substance preparation in the desired concentration.
as §3

[7] = active substance 20 ppm + ammonium sulfate 1000 ppm
[8] = active substance 20 ppm + rape oil methyl ester 1000 ppm
[9] = active substance 20 ppm + rape oil methyl ester and ammonium sulfate
[10] = active substance 0.8 ppm + ammonium sulfate 1000 ppm
[11] = active substance 0.8 ppm + rape oil methyl ester 1000 ppm
[12] = active substance 0.8 ppm + rape oil methyl ester and ammonium sulfate
[13] = active substance 4 ppm + ammonium sulfate 1000 ppm
[14] = active substance 4 ppm + rape oil methyl ester 1000 ppm
[15] = active substance 4 ppm + rape oil methyl ester and ammonium sulfate

## N#Cc1ccccc1S(N)(=O)=O [Example 226]
[1]; [7]
  Kill rate/% after 6 days, +AS (1000 ppm): 10%
[1]; [8]
  Kill rate/% after 6 days, +RME (1000 ppm): 25%
[1]; [9]
  Kill rate/% after 6 days, +RME + AS (each 1000 ppm): 50%
[1]; active substance 20 ppm
  Kill rate/% after 6 days, a.i.: 10%
[2]; [10]
  Kill rate/% after 6 days, +AS (1000 ppm): 0%
[2]; [11]
  Kill rate/% after 6 days, +RME (1000 ppm): 20%
[2]; [12]
  Kill rate/% after 6 days, +RME + AS (each 1000 ppm): 35%
[2]; active substance 0.8 ppm
  Kill rate/% after 6 days, a.i.: 0%
[2]; [13]
  Kill rate/% after 6 days, +AS (1000 ppm): 20%
[2]; [14]
  Kill rate/% after 6 days, +RME (1000 ppm): 35%
[2]; [15]
  Kill rate/% after 6 days, +RME + AS (each 1000 ppm): 55%
[2]; active substance 4 ppm
  Kill rate/% after 6 days, a.i.: 20%
[3]; [7]
  Kill rate/% after 6 days, +AS (1000 ppm): 70%
[3]; [8]
  Kill rate/% after 6 days, +RME (1000 ppm): 60%
[3]; [9]
  Kill rate/% after 6 days, +RME + AS (each 1000 ppm): 90%
[3]; active substance 20 ppm
  Kill rate/% after 6 days, a.i.: 50%

## C=CCNS(=O)(=O)c1cccc(OC)c1C#N [Example 44]
[4]; [13]
  Kill rate/% after 6 days, +AS (1000 ppm): 25%
[4]; active substance 4 ppm
  Kill rate/% after 6 days, a.i.: 5%
[1]; [13]
  Kill rate/% after 6 days, +AS (1000 ppm): 15%
[1]; [14]
  Kill rate/% after 6 days, +RME (1000 ppm): 20%
[1]; [15]
  Kill rate/% after 6 days, +RME + AS (each 1000 ppm): 30%
[1]; active substance 4 ppm
  Kill rate/% after 6 days, a.i.: 10%
[1]; [7]
  Kill rate/% after 6 days, +AS (1000 ppm): 70%
[1]; [8]
  Kill rate/% after 6 days, +RME (1000 ppm): 85%
[1]; [9]
  Kill rate/% after 6 days, +RME + AS (each 1000 ppm): 98%
[1]; active substance 20 ppm
  Kill rate/% after 6 days, a.i.: 85%
[2]; [13]
  Kill rate/% after 6 days, +AS (1000 ppm): 25%
[2]; [14]
  Kill rate/% after 6 days, +RME (1000 ppm): 45%
[2]; [15]
  Kill rate/% after 6 days, +RME + AS (each 1000 ppm): 55%
[2]; active substance 4 ppm
  Kill rate/% after 6 days, a.i.: 5%
[5]
  Kill rate/% after 6 days, +AS (1000 ppm): 70%
  Kill rate/% after 6 days, a.i.: 40%

## C#CCNS(=O)(=O)c1cccc(OC)c1C#N [Example 42]
[6]; [7]
  Kill rate/% after 6 days, +AS (1000 ppm): 20%
[6]; active substance 20 ppm
  Kill rate/% after 6 days, a.i.: 5%
[1]; [7]
  Kill rate/% after 6 days, +AS (1000 ppm): 20%
[1]; [8]
  Kill rate/% after 6 days, +RME (1000 ppm): 25%
[1]; [9]
  Kill rate/% after 6 days, +RME + AS (each 1000 ppm): 70%
[1]; active substance 20 ppm
  Kill rate/% after 6 days, a.i.: 5%
[1]; active substance 100 ppm + ammonium sulfate 1000 ppm
  Kill rate/% after 6 days, +AS (1000 ppm): 80%
[1]; active substance 100 ppm + rape oil methyl ester 1000 ppm
  Kill rate/% after 6 days, +RME (1000 ppm): 99%
[1]; active substance 100 ppm + rape oil methyl ester and ammonium sulfate
  Kill rate/% after 6 days, +RME + AS (each 1000 ppm): 100%
[1]; active substance 100 ppm
  Kill rate/% after 6 days, a.i.: 75%

## COc1cccc(S(=O)(=O)NC2CC2)c1C#N [Example 83]
[1]
  Kill rate/% after 7 days, +AS (1000 ppm): 0%
  Kill rate/% after 7 days, +RME (1000 ppm): 10%
  Kill rate/% after 7 days, +RME + AS (each 1000 ppm): 75%
  Kill rate/% after 7 days, a.i.: 0%
[2]
  Kill rate/% after 7 days, +AS (1000 ppm): 55%
  Kill rate/% after 7 days, +RME (1000 ppm): 30%
  Kill rate/% after 7 days, +RME + AS (each 1000 ppm): 85%
  Kill rate/% after 7 days, a.i.: 10%

## COc1cccc(S(=O)(=O)N(C)C)c1C#N [Example 215]
[1]
  Kill rate/% after 7 days, +AS (1000 ppm): 20%
  Kill rate/% after 7 days, +RME (1000 ppm): 40%
  Kill rate/% after 7 days, +RME + AS (each 1000 ppm): 75%
  Kill rate/% after 7 days, a.i.: 0%

## COc1cccc(S(=O)(=O)NC(C)C)c1C#N [Example 41]
[2]
  Kill rate/% after 7 days, +AS (1000 ppm): 80%
  Kill rate/% after 7 days, +RME (1000 ppm): 10%
  Kill rate/% after 7 days, +RME + AS (each 1000 ppm): 93%
  Kill rate/% after 7 days, a.i.: 50%

## C#CCN1C(=N)c2c(OC)cccc2S1(=O)=O [Example 42-A]
[6]; [7]
  Kill rate/% after 6 days, +AS (1000 ppm): 45%
[6]; active substance 20 ppm
  Kill rate/% after 6 days, a.i.: 0%
[4]; [13]
  Kill rate/% after 6 days, +AS (1000 ppm): 55%
[4]; active substance 4 ppm
  Kill rate/% after 6 days, a.i.: 15%
[4]; [7]
  Kill rate/% after 6 days, +AS (1000 ppm): 98%
[4]; active substance 20 ppm
  Kill rate/% after 6 days, a.i.: 30%
[1]; [7]
  Kill rate/% after 6 days, +AS (1000 ppm): 45%
[1]; [8]
  Kill rate/% after 6 days, +RME (1000 ppm): 90%
[1]; [9]
  Kill rate/% after 6 days, +RME + AS (each 1000 ppm): 98%
[1]; active substance 20 ppm
  Kill rate/% after 6 days, a.i.: 0%
[3]; [10]
  Kill rate/% after 6 days, +AS (1000 ppm): 30%
[3]; [11]
  Kill rate/% after 6 days, +RME (1000 ppm): 45%
[3]; [12]
  Kill rate/% after 6 days, +RME + AS (each 1000 ppm): 80%
[3]; active substance 0.8 ppm
  Kill rate/% after 6 days, a.i.: 50%
[3]; [13]
  Kill rate/% after 6 days, +AS (1000 ppm): 50%
[3]; [14]
  Kill rate/% after 6 days, +RME (1000 ppm): 75%
[3]; [15]
  Kill rate/% after 6 days, +RME + AS (each 1000 ppm): 95%
[3]; active substance 4 ppm
  Kill rate/% after 6 days, a.i.: 70%

## COc1cccc(S(=O)(=O)NCc2ccccc2)c1C#N [Example 40]
[1]
  Kill rate/% after 7 days, +AS (1000 ppm): 0%
  Kill rate/% after 7 days, +RME (1000 ppm): 40%
  Kill rate/% after 7 days, +RME + AS (each 1000 ppm): 50%
  Kill rate/% after 7 days, a.i.: 0%

## C=CCN(C)S(=O)(=O)c1cccc(OC)c1C#N [Example 225]
[4]; [7]
  Kill rate/% after 6 days, +AS (1000 ppm): 75%
[4]; active substance 20 ppm
  Kill rate/% after 6 days, a.i.: 35%
[1]; [13]
  Kill rate/% after 6 days, +AS (1000 ppm): 0%
[1]; [14]
  Kill rate/% after 6 days, +RME (1000 ppm): 5%
[1]; [15]
  Kill rate/% after 6 days, +RME + AS (each 1000 ppm): 35%
[1]; active substance 4 ppm
  Kill rate/% after 6 days, a.i.: 0%
[5]
  Kill rate/% after 6 days, +AS (1000 ppm): 80%
  Kill rate/% after 6 days, a.i.: 20%

## COc1cccc2c1C(N)=NS2(=O)=O [Example 45-B]
[6]; [13]
  Kill rate/% after 6 days, +AS (1000 ppm): 60%
[6]; active substance 4 ppm
  Kill rate/% after 6 days, a.i.: 35%
